Test results taken from patent US20070110815A1, “Micronised azodicarbonamide, and the preparation and use thereof” (priority 2005, published 2007).

Key:
[1] = Particle size analysis by laser diffraction during micronisation; format: physicochemical
Protocol: A thorough fragmentation of dry powder forming each of these batches is carried out, feeding them at a rate of 4 kg/h into a known dry powder disintegration device, for example into a device of the Alpine® 100 AFG Jet Mill model from Hosokawa Micron Group. This device comprises a cylindrical milling chamber with a conical bottom which is made of stainless steel coated with an elastomer. This chamber has a diameter of 100 mm and a volume of 800 cm^3. The particles to disintegrate are introduced into the chamber by an endless screw. Then the particles are projected against each other by compressed air jets from 3 air nozzles having a diameter of 2 mm which run into each other at the same point. The obtained air stream carries then the disintegrated particles at 50 bar towards a turbo-selecting device which is integrated within the milling chamber. In this example this turbo-selecting device has the shape of a squirrel-cage which has adjustable rotational speed of 5000 to 16000 rpm.
This device allows the exit of the particles smaller than a determined size, in this case <5 μm, and repulses into the milling chamber the particles having a greater size. The fine particles (searched size) which leave the milling chamber are collected for example by means of a cyclone.
The sizes of the particles were then analysed. In order to analyse the diameters use was made of a RODOS & RODOS/M dry powder dispersion device (from Sympatec GmbH) and a VIBRI vibratory powder feed tool (from Sympatec GmbH) with a HELOS laser diffraction system (from Sympatec GmbH). The powders analysed were fed at a rate of 35% of the maximum rate. On passing through an air jet, the powder is subjected to shearing forces of around 3.0 bar. Using a vacuum (90-100 mbar) they are then sucked into the path of a HE/NE laser beam. The diffraction of the laser beam by the particles creates a model which is measured and converted by computer into a particle size distribution using software associated with the HELOS system.

[2] = Particle size stability of micronised ADA in capsules on storage; format: physicochemical
Protocol: After having manufactured micronised ADA under the conditions of examples 1 and 2, a size distribution of the ADA crystals was obtained, as illustrated on the appended FIG. 2.
Thereafter the active substance was incorporated into capsules which have been stored for 11 months within a refrigerator at 8° C., in order to determine the stability of ADA according to the standards (International Harmonisation Conference: ICH).
The size of the ADA particles has been determined again at this moment as well as after 3 additional months within a stove at 25° C./60% humidity.

[3] = oral administration; cited from earlier work
[4] = water and organic solvents; cited from earlier work
[5] = system: reactivity of the respiratory tracts; test: Reactivity of respiratory tracts in ovalbumin-sensitised rats; format: in vivo; conditions: sensitised Brown Norway rats, force feeding twice a day 125 and 250 mg/kg, day -1 to day 20, all doses of methacholine
Protocol: At day 0, Brown Norway rats (200-250 g) were sensitised by intraperitoneal administration (1 ml/rat) of ovalbumin (1 mg/ml) mixed with aluminium hydroxide (100 mg/ml).
In this experiment, micronised ADA according to the invention is administered to rats by force feeding in the form of a suspension in poloxamer 188. The administration takes place twice a day in doses of 125 and 250 mg/kg, from day −1 up to day 20.

rats = test: 28-day oral toxicity in rats; format: in vivo; conditions: daily 900, 150 and 25 mg/kg for 28 days, suspension in carboxymethylcellulose
Protocol: (§1) Tests were carried out on rats to which daily doses of 900, 150 and 25 mg of ADA according to the invention/kg of body weight were administered orally for 28 days. The ADA was in the form of a micronised powder according to the invention in suspension in carboxymethylcellulose. Likewise an identical test was carried out on dogs at daily doses for 28 days of 400, 100 and 25 mg of ADA according to the invention/kg of body weight.

[6] = Comparative examination of bioavailability (biurea in blood after force feeding); format: in vivo; conditions: mice, force feeding, 10, 5 and 1.25 mg/kg, 30 minutes after ingestion, suspension in CMC, FIG. 1
Protocol: 54 mice are randomly divided into 9 groups of 6 animals and receive a dose of ADA by force feeding.
The concentration of biurea, the only catabolite of ADA “in vivo” (Concise International Chemical Assessment Document 16; World Health Organisation: Geneva, 1999) in the blood serum (μg/ml) was determined 30 minutes after ingestion by means of a high-pressure liquid chromatography method. This concentration represents a measurement of the bioavailability of ADA in the organism.
Analysis of the plasma samples was carried out by high-pressure liquid chromatography, followed by mass spectrometry, in accordance with the standards of the “Food and Drug (USA) Administration May 2001: Guidance for Industry: Bioanalytical method validation” (lowest quantification limit (LOQ) of 0.20 μg/ml and linear method up to 20 μg/ml).

healthy male volunteers = test: Examination of toxicity on human beings (urine examination by flow cytometry); format: in vivo; conditions: capsules, seven days, up to 6 g per day, limit of detection 2 μm
Protocol: “ESB free” gelatine-coated capsules containing a composition as described in example 4 were administered for seven days to healthy male volunteers at a dose ranging up to 6 g per day (single dose of 150 to 6,000 mg and repeated doses of 300 to 2,400 mg).
A urine examination was carried out using flow cytometry (limit of detection 2 μm).

dogs = test: 28-day oral toxicity in dogs; format: in vivo
Protocol: as §1
On the dogs that received 400 mg/kg/day for 28 days, a histological examination was also carried out with dissection of the kidneys.

[7] = End of micronisation, listed as A
[8] = Middle of micronisation, listed as A
[9] = Start of micronisation, listed as A
[10] = Test date Aug. 7, 2005, 3 additional months at 25° C./60% humidity
[11] = Test date Jun. 20, 2004, after manufacture
[12] = Test date May 7, 2005, capsules stored 11 months in refrigerator at 8° C.
[13] = End of micronisation, listed as B
[14] = Middle of micronisation, listed as B
[15] = Start of micronisation, listed as B
[16] = End of micronisation, listed as C
[17] = Middle of micronisation, listed as C
[18] = Start of micronisation, listed as C

NC(=O)N=NC(N)=O [Batch A, azodicarbonamide]
Granulometry of particles during micronisation d10 [1, 7]: 0.56 μm
Granulometry of particles during micronisation d50 [1, 7]: 1.51 μm
Granulometry of particles during micronisation d90 [1, 7]: 3.50 μm
Granulometry of particles during micronisation d10 [1, 8]: 0.56 μm
Granulometry of particles during micronisation d50 [1, 8]: 1.53 μm
Granulometry of particles during micronisation d90 [1, 8]: 3.55 μm
Granulometry of particles during micronisation d10 [1, 9]: 0.58 μm
Granulometry of particles during micronisation d50 [1, 9]: 1.61 μm
Granulometry of particles during micronisation d90 [1, 9]: 3.78 μm

NC(=O)N=NC(N)=O [Batch K9K, azodicarbonamide]
Particle sizes D10 [2, 10]: 0.74 μm
Particle sizes D50 [2, 10]: 1.93 μm
Particle sizes D10 [2, 11]: 0.59 μm
Particle sizes D50 [2, 11]: 1.56 μm
Particle sizes D10 [2, 12]: 0.69 μm
Particle sizes D50 [2, 12]: 1.74 μm

NC(=O)N=NC(N)=O [ADA as commercially available, azodicarbonamide]
Formation of biurea crystals in the urine [3]: the formation of biurea crystals is quickly observed in the urine

NC(=O)N=NC(N)=O [Batch B, azodicarbonamide]
Granulometry of particles during micronisation d10 [1, 13]: 0.59 μm
Granulometry of particles during micronisation d50 [1, 13]: 1.56 μm
Granulometry of particles during micronisation d90 [1, 13]: 3.68 μm
Granulometry of particles during micronisation d10 [1, 14]: 0.58 μm
Granulometry of particles during micronisation d50 [1, 14]: 1.59 μm
Granulometry of particles during micronisation d90 [1, 14]: 3.88 μm
Granulometry of particles during micronisation d10 [1, 15]: 0.58 μm
Granulometry of particles during micronisation d50 [1, 15]: 1.58 μm
Granulometry of particles during micronisation d90 [1, 15]: 3.71 μm

NC(=O)N=NC(N)=O [Batch K9L, azodicarbonamide]
Particle sizes D10 [2, 10]: 0.76 μm
Particle sizes D50 [2, 10]: 2.08 μm
Particle sizes D10 [2, 11]: 0.57 μm
Particle sizes D50 [2, 11]: 1.58 μm
Particle sizes D10 [2, 12]: 0.72 μm
Particle sizes D50 [2, 12]: 1.88 μm

NC(=O)N=NC(N)=O [Batch K9J, azodicarbonamide]
Particle sizes D10 [2, 10]: 0.76 μm
Particle sizes D50 [2, 10]: 2.05 μm
Particle sizes D10 [2, 11]: 0.56 μm
Particle sizes D50 [2, 11]: 1.51 μm
Particle sizes D10 [2, 12]: 0.72 μm
Particle sizes D50 [2, 12]: 1.86 μm

NC(=O)N=NC(N)=O [ADA, Azodicarbonamide]
Solubility [4]: not very soluble in water or in the majority of organic solvents
Inhibition of the increase in reactivity of the respiratory tracts caused by antigen attack [5]: significant inhibition

NC(=O)N=NC(N)=O [azodicarbonamide]
Adverse effect (rats): In neither of the two tests was any adverse effect observed
Stability of particle size on storage ([2]; no additive, 11 months 8° C. plus 3 months 25° C./60% humidity, FIG. 3): stability of ADA according to the invention clearly results
Bioavailability of ADA in the blood (concentration of biurea) [6]: appreciably better than the non-micronised ADA
Bioavailability of ADA in the blood (concentration of biurea) ([6]; listed as ADA according to the invention): even better bioavailability than completely dissolved ADA
Kidney stones or cylinders in urine (healthy male volunteers): No kidney stones or cylinders were observed
Biurea crystals in kidneys (histological examination) (dogs; 400 mg/kg/day for 28 days): no biurea crystals were observed
Adverse effect (dogs; oral, daily 400, 100 and 25 mg/kg for 28 days): In neither of the two tests was any adverse effect observed

NC(=O)N=NC(N)=O [Batch C, azodicarbonamide]
Granulometry of particles during micronisation d10 [1, 16]: 0.57 μm
Granulometry of particles during micronisation d50 [1, 16]: 1.58 μm
Granulometry of particles during micronisation d90 [1, 16]: 3.85 μm
Granulometry of particles during micronisation d10 [1, 17]: 0.57 μm
Granulometry of particles during micronisation d50 [1, 17]: 1.56 μm
Granulometry of particles during micronisation d90 [1, 17]: 3.69 μm
Granulometry of particles during micronisation d10 [1, 18]: 0.56 μm
Granulometry of particles during micronisation d50 [1, 18]: 1.47 μm
Granulometry of particles during micronisation d90 [1, 18]: 3.43 μm
